Data as given in patent US10822299B2, “Compounds and methods for hematopoietic regeneration” (The Regents of the University of California, priority 2016, dated 2020).

Assays:
[1] = system: Rac1; assay: Rac1 activation assay (G-LISA); format: cell-based; details: cells incubated 2 minutes at 1 and 10 μg/mL
Procedure: Cell cultures were incubated with each tested compound for 2 minutes at concentrations of 1 and 10 μg/mL, after which the cells were tested for Rac1 activation using a G-LISA activation assay. The cells were lysed and the lysates introduced into wells containing Rac-GTP-binding protein, then sequentially incubated with anti-Rac1 antibody and a horseradish peroxidase-linked secondary antibody. The amount of horseradish peroxidase was then quantitated to evaluate the Rac1 activation potency of each compound studied.

[2] = molecular target: T1, PTPRS catalytic domains (D1D2) (Homo sapiens, UniProt Q13332); assay: In vitro phosphatase assay (modified Malachite Green Assay); format: biochemical; details: for IC50: 50 nM PTPRS, 100 uM Tyr Phosphopeptide, 15 min preincubation
T1 construct: The two interacellular catalytic domains (D1D2) of PTPRS were cloned into a pET28a vector; made in house; host or cells: E. coli BL21
T1 sequence (Q13332 1304-1948 limits assumed): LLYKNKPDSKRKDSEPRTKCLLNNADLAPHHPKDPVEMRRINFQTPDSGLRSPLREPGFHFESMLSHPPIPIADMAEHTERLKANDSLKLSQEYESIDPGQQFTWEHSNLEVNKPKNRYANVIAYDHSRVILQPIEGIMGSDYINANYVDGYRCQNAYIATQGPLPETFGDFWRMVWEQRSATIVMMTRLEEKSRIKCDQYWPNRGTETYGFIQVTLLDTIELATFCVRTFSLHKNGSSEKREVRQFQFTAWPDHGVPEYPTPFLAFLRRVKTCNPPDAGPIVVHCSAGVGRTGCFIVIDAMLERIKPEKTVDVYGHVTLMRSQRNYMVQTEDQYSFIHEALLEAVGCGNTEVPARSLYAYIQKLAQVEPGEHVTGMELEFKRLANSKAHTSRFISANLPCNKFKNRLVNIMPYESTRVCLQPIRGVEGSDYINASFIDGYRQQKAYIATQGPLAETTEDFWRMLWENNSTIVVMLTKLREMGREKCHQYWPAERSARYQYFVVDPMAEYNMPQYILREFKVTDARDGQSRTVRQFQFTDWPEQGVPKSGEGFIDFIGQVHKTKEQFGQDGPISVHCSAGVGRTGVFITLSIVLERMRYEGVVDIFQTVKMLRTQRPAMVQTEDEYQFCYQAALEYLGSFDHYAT
Procedure: The two interacellular catalytic domains (D1D2) of PTPRS were cloned into a pET28a vector and overexpressed in E. coli BL21 and purified as described in Jeon T J, et al. Structure of the Catalytic Domain of Protein Tyrosine Phosphatase Sigma in the Sulfenic Acid Form. Molecules and Cells. 2013; 36(1):55-61. doi:10.1007/s10059-013-0033-x. Enzymatic activity of PTPRS was assayed using a modified version of the Malachite Green Assay (described in Lorenz U. Protein Tyrosine Phosphatase Assays. Current protocols in immunology/edited by John E Coligan. [et al]. 2011; CHAPTER:Unit-11.7. doi:10.1002/0471142735.im1107s93) and the Tyrosine Phosphatase Assay Kit (Promega Coorperation). Unless stated otherwise, standard assays were carried out using 50 nM PTPRS protein in 1× Buffer (10 mM Tris, 5 mM MgCl2, 10 mM NaCl, 0.02% Tween) and Tyr Phosphopeptide as substrate (100 uM for FIG. 1 and 50-1200 uM in FIG. 2). Catalytic domains D1D2 were preincubated with the test compound or control for 15 min in the wells of a 96 well plate before the addition of 100 uM Tyr Phosphopeptide (DADA(pY)LIPQQG).
For IC50 determination, rates normalized relative to uninhibited controls (DMSO) were plotted against compound concentration and fitted using a four-parameter nonlinear regression curve fit ((y=[(A−D) (1+{xC−1}B)−1]+D), (Prism 6.0, Graphpad Software). For mechanism studies and determination of the enyzme's Km and Vmax, data were analyzed using a nonlinear regression fit according to classical Mechaelis-Menten kinetics model Y=Vmax*X/(Km+X) (Prism 6.0, Graphpad Software).

[3] = system: Rac1; assay: Rac1 signaling in HSCs (BM KSL cells expressing Rac1 GTP, FIG. 1); format: cell-based
From the text: (§1) A) CFU-GEMMs produced by TSF media vs. TSF+GJ001 (p=0.001). B) Percentage of BM KSL cells expressing Rac1 GTP (p=0.008). C) Survival of mice irradiated with 750 cGy followed by treatment with DJ001 or vehicle (p=0.0007). D) % BM KSL cells (blue) and % ckit^+sca-1^−lin^− progenitors (gray) at day+21 in irradiated mice.

[4] = system: irradiated mice; assay: Survival and HSC regeneration of irradiated mice; format: in vivo; details: for Survival of irradiated mice: irradiated mice (DJ001: 750 cGy, lethal dose)
From the text: as §1

[5] = system: hematopoietic colony formation; assay: Hematopoietic colony formation; format: cell-based

IC50 [2] [µM]	Structure (SMILES)	Rac1 Activation [1]	also measured
	O=C(/C=C\Nc1cccc(F)c1)c1ccccc1 [DJ002]	no	
	Cc1cccc(N/C=C\C(=O)c2ccccc2)c1 [DJ004]	yes	
	COc1cccc(N/C=C\C(=O)c2ccccc2)c1 [DJ005]	no	
3.03	CC(=O)c1cccc(N/C=C\C(=O)c2ccccc2)c1 [DJ006]	no	
	O=C(/C=C\Nc1cccc(-c2ccccc2)c1)c1ccccc1 [DJ007]	no	
	CN(C)c1cccc(N/C=C\C(=O)c2ccccc2)c1 [DJ008]	no	
1.37	O=C(/C=C\Nc1cc(F)cc(F)c1)c1ccccc1 [DJ009]	yes	
	Cc1cc(C)cc(N/C=C\C(=O)c2ccccc2)c1 [DJ011]	yes	
	COc1cc(N/C=C\C(=O)c2ccccc2)cc(OC)c1 [DJ012]	yes	
	O=C(/C=C\Nc1ccccc1)c1ccccc1 [DJ013]	yes	
	CC(C)(C)[Si](C)(C)Oc1cccc(N/C=C\C(=O)c2ccccc2)c1 [DJ014]	yes	
1.39	O=C(/C=C\Nc1cccc(O)c1)c1ccccc1 [DJ015]	yes	
	CN(C)S(=O)(=O)c1cccc(N/C=C\C(=O)c2ccccc2)c1 [DJ016]	no	
	CCCCN/C=C\C(=O)c1ccccc1 [DJ017]	no	
	O=C(/C=C\NCc1ccco1)c1ccccc1 [DJ018]	no	
	CC(C)(C)N/C=C\C(=O)c1ccccc1 [DJ019]	no	
0.91	O=C(c1ccccc1)c1ccccc1Nc1cccc([N+](=O)[O-])c1 [DJ027]		
1.83	O=C(/C=C\Nc1cc(C(F)(F)F)cc(C(F)(F)F)c1)c1ccccc1 [DJ030]		
0.95	Cc1cccc(C(=O)/C=C\Nc2cccc(C(F)(F)F)c2)c1 [DJ033]		

Structure (SMILES)	IC50 [2] [µM]	Rac1 Activation [1]	also measured
O=C(/C=C\Nc1cccc([N+](=O)[O-])c1)c1ccccc1 [DJ001]	1.43	yes	Mechanism of inhibition (substrate titration of PTPσ, Vmax and Km) ([2]; substrate titration, Michaelis-Menten fit): classical noncompetitive inhibitor; Rac1 signaling in HSCs [3]: activates Rac1 signaling in HSCs; HSC regeneration in irradiated mice ([4]; irradiated mice): accelerates HSC regeneration in irradiated mice; Survival of irradiated mice [4]: dramatically increases mice survival following lethal dose irradiation
O=C(/C=C\Nc1cccc(C(F)(F)F)c1)c1ccccc1 [DJ003]	1.06	yes	Survival of irradiated mice [4]: improves survival of irradiated mice; Hematopoietic colony formation [5]: increases hematopoietic colony formation
